The experiment deals with T1, SaDHPS (Staphylococcus aureus, UniProt O05701, R204H/P216R).
T1 construct: gene folP
The following applies: read-out: SaDHPS + SIZ-2FITC / IC50 (ng/mL); tracer SIZ-2FITC; 4 mM DHPPP, 40 mM Mg2+ in reaction buffer, pH 8.0, 37 C, 2 min.

One compound from publication PMC10534214 (Food Chemistry: X, 2023) can be followed below.

As for `NS(=O)(=O)c1ccccc1` [BSN], the IC50 was 0.0551 µM.
